Source: patent US9993553B2, “Methods and compositions for targeted release of molecules from nanoscale carriers” (The Regents of the University of California, priority 2013, dated 2018)
{6-FAM} = 6-carboxyfluorescein dye; {BHQ-1} = Black Hole Quencher-1

Assays:
[1] = X-ray radiation cleavage of 6-FAM labelled DNA, fluorescence spectroscopy, with DMSO as hydroxyl radical scavenger; type: physicochemical; conditions: 100 Gy
Procedure: X-ray radiation studies were performed, using DMSO as a hydroxyl radical scavenger at concentrations from 0-100 mM. In a 24-well plate, 400 μL of purified 6-FAM-DNA-AuNPs were mixed with 400 μL of 2×DMSO solution, or PBS and the samples were irradiated with X-rays. After radiation, the AuNPs were removed from solution by centrifugation (13,000 rpm, 15 min) and supernatant fluorescence was measured (Excitation at 490 nm and Emission at 514 nm). Non-radiated controls were identically prepared and measured.
6-FAM has a high fluorescence yield (>80%) and high quenching when attached to AuNPs. The cleavage via X-ray irradiation was studied with optical fluorescence spectroscopy.
Black Hole Quencher®-1 DNA, coupled to 6-FAM, was purchased from IDT (6-FAM-5′-[…]-3′-BHQ-1®). It was irradiated with DMSO at concentrations from 0-100 mM in 24 well plates, and the fluorescence from cleaved DNA was measured. […] X-ray radiated and cleaved 6-FAM molecules were incubated with MCF-7 cells for 4 hours.

MCF-7 cells = assay: Clonogenic assay with X-ray irradiation; type: cell-based
Procedure: MCF-7 cells were plated at a rate of 50,000 cells/ml in a 24-well cell culture plate. They were then incubated with DOX, DOX-DNA, and DOX-DNA-AuNPs for 12 hours, and then irritated with 0, 2, 5, and 10 Gy X-rays. The cells were then counted, using a hemocytometer, and replated in a 6 well plate at 1000 cell per well for the 0 and 2 Gy dose; 3000 cells for the 5 Gy; and 9000 for the 10 Gy. The plates were incubated for 14 days, and then fixed with gluteraldhyde and stained with crystal violet. The colonies with 50 or more cells were then counted.

For “6-FAM-5′-TTAGGGTTAGGG-3′-BHQ-1® (DNA, 5' {6-FAM}, 3' {BHQ-1}, backbone not given here) [Q-DNA-6-FAM, Black Hole Quencher-1 DNA coupled to 6-FAM, purchased from IDT]”, the “Effect of DMSO (hydroxyl radical scavenger) on cleavage / fluorescence” value ([1]; DMSO up to 100 mM) was “significantly reduced the fluorescence”, the “Cleavage after X-ray radiation” value ([1]; zero DMSO) was 25% and the “Cleavage (fluorescence) after X-ray radiation in the presence of AuNPs” value ([1]; zero DMSO, mixture with AuNPs, no covalent conjugation) was 4%.
For `COc1cccc2c1C(=O)c1c(O)c3c(c(O)c1C2=O)C[C@@](O)(C(=O)CO)C[C@@H]3O[C@H]1C[C@H](N)[C@H](O)[C@H](C)O1` [DOX, doxorubicin], the Measured cell survivability (MCF-7 cells; 0 Gy) was 0.81 ± .01, the Measured cell survivability (MCF-7 cells; 2 Gy) was 0.61 ± .05 and the Measured cell survivability (MCF-7 cells; 5 Gy) was 0.28 ± .02. The Measured cell survivability (MCF-7 cells; 10 Gy) was 0.07 ± .002, the “Survivability of MCF-7 cells” value (MCF-7 cells; DOX alone, no radiation) was 80% and the “Toxicity to MCF-7 cells” value (MCF-7 cells; DOX alone, no radiation, 24 million free DOX in the cell) was “about 20%”.
